Measurements reported in PubChem BioAssay AID2060495 (Molecular Pharmacology Branch, DTP, NCI, 2025).

Tested on: 521955-158-R2-J5-PDC complex spheroid viability
Assay: Anticancer human tumor 521955-158-R2-J5-PDC patient-derived pancreatic carcinoma cell line growth inhibition [GQUAD]
Conditions: for IC50: curve of first compound; for viability, T/C: stronger effect = lower value
From the text: DNA G-quadruplex Stabilizer Agents in Combinations in Complex Spheroids
A high-throughput screen of multi-cell type tumor spheroids was designed to identify active combinations of DNA G-quadruplex stabilizer agents and targeted small molecules. Complex spheroids include a stromal component modeled by human endothelial cells (HUVEC) and fibroblasts modeled by human mesenchymal stem cells (MSCs). The concentration ranges selected for each drug and investigational agent were based upon clinically achievable concentrations if the clinical Cmax of the agent was known.
Compounds. The drugs and investigational agents: pidnarulex (CX-5461; NSC782164), APTO-253 (NSC789042), BRACO-19 (NSC847499), peposertib (NSC802822), ceralasertib (NSC780249), elimusertib (NSC800525), camonsertib (NSC841442), AZD-1390 (NSC803789), olaparib (NSC753686), talazoparib (NSC767125), ART-558 (NSC835418), sotorasib (NSC818433), MRTX-1133 (NSC836407), SN-38 (NSC673596), topotecan (NSC609699), etoposide (NSC141540), doxorubicin (NSC123127), gemcitabine (NSC613327), 5-fluorouracil (NSC19893), paclitaxel (NSC125973), vemurafenib (NSC761431), panobinostat (NSC761190), R-306465 (JNJ-16241199; NSC773264), adavosertib (NSC754352), TP-3654 (NSC805149), carboplatin (NSC241240), KSQ-4279 (NSC840948), and staurosporine (NSC755774) were obtained from the National Cancer Institute (NCI) Developmental Therapeutics Program Chemical Repository (34). The FDA-approved anticancer drug set is available from the NCI Developmental Therapeutics Program. […] The stock solutions were prepared in dimethyl sulfoxide (DMSO, Sigma-Aldrich, St. Louis, MO, cat. D2650) at 800-fold the tested concentration and stored at -70 degrees C prior to their use. All drugs and investigational agents were tested over a range starting from a high concentration at or near the clinical Cmax and decreasing in half-log increments. If the clinical Cmax for an agent had not been determined, the highest concentration tested was 10 microM.
2.3 Cell Culture. All cells were maintained in an incubator at 37 degrees C and 5% CO2 with 95% humidity. The PDC lines were cultured according to standard operating procedures established by the NCI PDMR. All PDCs were thawed and cultured in Matrigel-coated flasks prepared with a working solution of 1X Ham's F-12 nutrient mix, without supplementation (Invitrogen, cat. 11765054), 100 U/mL penicillin-streptomycin (Invitrogen, cat. 15140122), and 2.5% Matrigel (Corning Inc., cat. 354248) for the first three passages. The 857933-349-R-J2-PDC line was cultured in 6C/Colon 1B media, which includes advanced DMEM/F-12 (Thermo Fisher Scientific, cat. 12634028), 10 mM HEPES (Thermo Fisher Scientific, cat. 15630080), 1X GlutaMAX supplement (Thermo Fisher Scientific, cat. 35050061), 0.1 mg/mL primocin (InvivoGen, cat. ant-pm-2), 10% defined fetal bovine serum, heat inactivated (HyClone Laboratories Inc., cat. SH30070.03HI), 50% L-WRN conditioned media (ATCC, cat. CRL-3276), 1.25 mM N-Acetyl-L-cysteine (Sigma-Aldrich, cat. A9165), 10 mM nicotinamide (Sigma-Aldrich, cat. N0636), 1X B-27 supplement (Thermo Fisher Scientific, cat. 17504044), 1X N-2 supplement (Thermo Fisher Scientific, cat. 17502048), 10 microM Y-27632 dihydrochloride (Tocris Bioscience, cat. 1254), and 50 ng/mL human EGF recombinant protein (Thermo Fisher Scientific, cat. PHG0311). The 485176-168-R4-J1-PDC line was cultured in Panc media, which includes all 6C/Colon 1B media components plus 100 ng/mL human FGF-10 (Thermo Fisher Scientific, cat. 100-26), 500 nM SB-431542 (Selleckchem, cat. S1067), and gastrin (Tocris, cat. 3006).
[…]
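Note: spheroids exposed to agents for one week before reading.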
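Throughout, for viability, T/C: 100% = DMSO vehicle control viability.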

Nc1ccn(C2OC(CO)C(O)C2(F)F)c(=O)n1 (configuration not stated) + CN(C)c1ccc(Nc2c3ccc(NC(=O)CCN4CCCC4)cc3nc3cc(NC(=O)CCN4CCCC4)ccc23)cc1
IC50 (second compound 0.0316 µM): 774 nM
IC50 (second compound 0.1 µM): 423 nM
IC50 (second compound 0.316 µM): 434 nM
IC50 (second compound 1 µM): 394 nM
IC50 (second compound 3.16 µM): 157 nM
IC50 (second compound 10 µM): 83 nM
viability, T/C (second compound 0.0316 µM, first compound 0.0316 µM): 76.5%
viability, T/C (second compound 0.0316 µM, first compound 0.1 µM): 73.5%
viability, T/C (second compound 0.0316 µM, first compound 0.316 µM): 66%
viability, T/C (second compound 0.0316 µM, first compound 1 µM): 45.1%
viability, T/C (second compound 0.0316 µM, first compound 3.16 µM): 24.1%
viability, T/C (second compound 0.0316 µM, first compound 10 µM): 12.6%
viability, T/C (second compound 0.1 µM, first compound 0.0316 µM): 76.6%
viability, T/C (second compound 0.1 µM, first compound 0.1 µM): 76.5%
viability, T/C (second compound 0.1 µM, first compound 0.316 µM): 54.5%
viability, T/C (second compound 0.1 µM, first compound 1 µM): 32.3%
viability, T/C (second compound 0.1 µM, first compound 3.16 µM): 19.5%
viability, T/C (second compound 0.1 µM, first compound 10 µM): 14.7%
viability, T/C (second compound 0.316 µM, first compound 0.0316 µM): 65.2%
viability, T/C (second compound 0.316 µM, first compound 0.1 µM): 66.7%
viability, T/C (second compound 0.316 µM, first compound 0.316 µM): 56.9%
viability, T/C (second compound 0.316 µM, first compound 1 µM): 31.1%
viability, T/C (second compound 0.316 µM, first compound 3.16 µM): 17.1%
viability, T/C (second compound 0.316 µM, first compound 10 µM): 14.2%
viability, T/C (second compound 1 µM, first compound 0.0316 µM): 71.7%
viability, T/C (second compound 1 µM, first compound 0.1 µM): 58.7%
viability, T/C (second compound 1 µM, first compound 0.316 µM): 57.1%
viability, T/C (second compound 1 µM, first compound 1 µM): 25.9%
viability, T/C (second compound 1 µM, first compound 3.16 µM): 12.5%
viability, T/C (second compound 1 µM, first compound 10 µM): 12%
viability, T/C (second compound 3.16 µM, first compound 0.0316 µM): 61.6%
viability, T/C (second compound 3.16 µM, first compound 0.1 µM): 52.8%
viability, T/C (second compound 3.16 µM, first compound 0.316 µM): 43.2%
viability, T/C (second compound 3.16 µM, first compound 1 µM): 22.4%
viability, T/C (second compound 3.16 µM, first compound 3.16 µM): 12.5%
viability, T/C (second compound 3.16 µM, first compound 10 µM): 11.9%
viability, T/C (second compound 10 µM, first compound 0.0316 µM): 64.8%
viability, T/C (second compound 10 µM, first compound 0.1 µM): 39.9%
viability, T/C (second compound 10 µM, first compound 0.316 µM): 41.1%
viability, T/C (second compound 10 µM, first compound 1 µM): 27%
viability, T/C (second compound 10 µM, first compound 3.16 µM): 17.2%
viability, T/C (second compound 10 µM, first compound 10 µM): 11.6%
